In PubChem BioAssay AID2060503 (Molecular Pharmacology Branch, DTP, NCI, 2025):
“And” between values parts separate entries of the source, which are not always exact repeats. Equal values may be shown once.

Tested on: 817829-284-R-J1-PDC complex spheroids, viability
Test: Anticancer human tumor 817829-284-R-J1-PDC patient-derived colon adenocarcinoma cell line growth inhibition [GQUAD]
Conditions: for viability, T/C: stronger effect = lower value; active = viability on the fitted dose curve at most 10% of control; inactive = the rest
From the text: DNA G-quadruplex Stabilizer Agents in Combinations in Complex Spheroids
A high-throughput screen of multi-cell type tumor spheroids was designed to identify active combinations of DNA G-quadruplex stabilizer agents and targeted small molecules. Complex spheroids include a stromal component modeled by human endothelial cells (HUVEC) and fibroblasts modeled by human mesenchymal stem cells (MSCs). The concentration ranges selected for each drug and investigational agent were based upon clinically achievable concentrations if the clinical Cmax of the agent was known.
Compounds. The drugs and investigational agents: pidnarulex (CX-5461; NSC782164), APTO-253 (NSC789042), BRACO-19 (NSC847499), peposertib (NSC802822), ceralasertib (NSC780249), elimusertib (NSC800525), camonsertib (NSC841442), AZD-1390 (NSC803789), olaparib (NSC753686), talazoparib (NSC767125), ART-558 (NSC835418), sotorasib (NSC818433), MRTX-1133 (NSC836407), SN-38 (NSC673596), topotecan (NSC609699), etoposide (NSC141540), doxorubicin (NSC123127), gemcitabine (NSC613327), 5-fluorouracil (NSC19893), paclitaxel (NSC125973), vemurafenib (NSC761431), panobinostat (NSC761190), R-306465 (JNJ-16241199; NSC773264), adavosertib (NSC754352), TP-3654 (NSC805149), carboplatin (NSC241240), KSQ-4279 (NSC840948), and staurosporine (NSC755774) were obtained from the National Cancer Institute (NCI) Developmental Therapeutics Program Chemical Repository (34). The FDA-approved anticancer drug set is available from the NCI Developmental Therapeutics Program. […] The stock solutions were prepared in dimethyl sulfoxide (DMSO, Sigma-Aldrich, St. Louis, MO, cat. D2650) at 800-fold the tested concentration and stored at -70 degrees C prior to their use. All drugs and investigational agents were tested over a range starting from a high concentration at or near the clinical Cmax and decreasing in half-log increments. If the clinical Cmax for an agent had not been determined, the highest concentration tested was 10 microM.
2.3 Cell Culture. All cells were maintained in an incubator at 37 degrees C and 5% CO2 with 95% humidity. The PDC lines were cultured according to standard operating procedures established by the NCI PDMR. All PDCs were thawed and cultured in Matrigel-coated flasks prepared with a working solution of 1X Ham's F-12 nutrient mix, without supplementation (Invitrogen, cat. 11765054), 100 U/mL penicillin-streptomycin (Invitrogen, cat. 15140122), and 2.5% Matrigel (Corning Inc., cat. 354248) for the first three passages. The 857933-349-R-J2-PDC line was cultured in 6C/Colon 1B media, which includes advanced DMEM/F-12 (Thermo Fisher Scientific, cat. 12634028), 10 mM HEPES (Thermo Fisher Scientific, cat. 15630080), 1X GlutaMAX supplement (Thermo Fisher Scientific, cat. 35050061), 0.1 mg/mL primocin (InvivoGen, cat. ant-pm-2), 10% defined fetal bovine serum, heat inactivated (HyClone Laboratories Inc., cat. SH30070.03HI), 50% L-WRN conditioned media (ATCC, cat. CRL-3276), 1.25 mM N-Acetyl-L-cysteine (Sigma-Aldrich, cat. A9165), 10 mM nicotinamide (Sigma-Aldrich, cat. N0636), 1X B-27 supplement (Thermo Fisher Scientific, cat. 17504044), 1X N-2 supplement (Thermo Fisher Scientific, cat. 17502048), 10 microM Y-27632 dihydrochloride (Tocris Bioscience, cat. 1254), and 50 ng/mL human EGF recombinant protein (Thermo Fisher Scientific, cat. PHG0311). The 485176-168-R4-J1-PDC line was cultured in Panc media, which includes all 6C/Colon 1B media components plus 100 ng/mL human FGF-10 (Thermo Fisher Scientific, cat. 100-26), 500 nM SB-431542 (Selleckchem, cat. S1067), and gastrin (Tocris, cat. 3006).
[…]

[1] = curve of first compound, second compound 0.0316 µM
[2] = curve of first compound, second compound 0.1 µM
[3] = curve of first compound, second compound 0.316 µM
[4] = curve of first compound, second compound 1 µM
[5] = curve of first compound, second compound 3.16 µM
[6] = curve of first compound, second compound 10 µM
[7] = second compound 0.0316 µM, first compound 0.0316 µM
[8] = second compound 0.0316 µM, first compound 0.1 µM
[9] = second compound 0.0316 µM, first compound 0.316 µM
[10] = second compound 0.0316 µM, first compound 1 µM
[11] = second compound 0.0316 µM, first compound 3.16 µM
[12] = second compound 0.0316 µM, first compound 10 µM
[13] = second compound 0.1 µM, first compound 0.0316 µM
[14] = second compound 0.1 µM, first compound 0.1 µM
[15] = second compound 0.1 µM, first compound 0.316 µM
[16] = second compound 0.1 µM, first compound 1 µM
[17] = second compound 0.1 µM, first compound 3.16 µM
[18] = second compound 0.1 µM, first compound 10 µM
[19] = second compound 0.316 µM, first compound 0.0316 µM
[20] = second compound 0.316 µM, first compound 0.1 µM
[21] = second compound 0.316 µM, first compound 0.316 µM
[22] = second compound 0.316 µM, first compound 1 µM
[23] = second compound 0.316 µM, first compound 3.16 µM
[24] = second compound 0.316 µM, first compound 10 µM
[25] = second compound 1 µM, first compound 0.0316 µM
[26] = second compound 1 µM, first compound 0.1 µM
[27] = second compound 1 µM, first compound 0.316 µM
[28] = second compound 1 µM, first compound 1 µM
[29] = second compound 1 µM, first compound 3.16 µM
[30] = second compound 1 µM, first compound 10 µM
[31] = second compound 3.16 µM, first compound 0.0316 µM
[32] = second compound 3.16 µM, first compound 0.1 µM
[33] = second compound 3.16 µM, first compound 0.316 µM
[34] = second compound 3.16 µM, first compound 1 µM
[35] = second compound 3.16 µM, first compound 3.16 µM
[36] = second compound 3.16 µM, first compound 10 µM
[37] = second compound 10 µM, first compound 0.0316 µM
[38] = second compound 10 µM, first compound 0.1 µM
[39] = second compound 10 µM, first compound 0.316 µM
[40] = second compound 10 µM, first compound 1 µM
[41] = second compound 10 µM, first compound 3.16 µM
[42] = second compound 10 µM, first compound 10 µM
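Also: spheroids exposed to agents for 7 days before readout.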
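For viability, T/C in this document: percent viability relative to DMSO vehicle control taken as 100%.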

C=CC(=O)N1CCN(c2nc(=O)n(-c3c(C)ccnc3C(C)C)c3nc(-c4c(O)cccc4F)c(F)cc23)C(C)C1 (stereo not drawn) + CN(C)c1ccc(Nc2c3ccc(NC(=O)CCN4CCCC4)cc3nc3cc(NC(=O)CCN4CCCC4)ccc23)cc1
> 10000 nM: IC50 [1] | IC50 [2] | IC50 [3] | IC50 [4] | IC50 [5]
inactive: viability, T/C [7] 101% | viability, T/C [8] 103% | viability, T/C [9] 97.5% | viability, T/C [10] 99.4% | viability, T/C [11] 83.7% | viability, T/C [12] 80% | viability, T/C [13] 99.7% | viability, T/C [14] 103% | viability, T/C [15] 104% | viability, T/C [16] 98.7% | viability, T/C [17] 106% | viability, T/C [18] 85.4% | viability, T/C [19] 91.3% | viability, T/C [20] 107% | viability, T/C [21] 89.6% | viability, T/C [22] 108% | viability, T/C [23] 86.3% | viability, T/C [24] 76.2% | viability, T/C [25] 96.2% | viability, T/C [26] 107% | viability, T/C [27] 92.3% | viability, T/C [28] 105% | viability, T/C [29] 92.2% | viability, T/C [30] 72.1% | viability, T/C [31] 95.6% | viability, T/C [32] 97.5% | viability, T/C [33] 98.8% | viability, T/C [34] 92.3% | viability, T/C [35] 92.3% | viability, T/C [36] 69.3% | viability, T/C [37] 101% | viability, T/C [38] 105% | viability, T/C [39] 92.7% | viability, T/C [40] 92.3% | viability, T/C [41] 84.3% | viability, T/C [42] 36.4%
7180 nM: IC50 [6]

COc1ccc([C@@H](O)c2cc(-c3ncnc4cc(N5CCOCC5)ccc34)c(F)cc2Cl)nn1
> 10000 nM and 6030 nM: IC50 (curve of compound)
inactive: viability, T/C (compound 0.0316 µM) 103% and 96.1% and 90.7% | viability, T/C (compound 0.1 µM) 90.9% and 95.3% and 105% | viability, T/C (compound 0.316 µM) 106% and 104% and 100% | viability, T/C (compound 1 µM) 80.6% and 84.1% and 83.6% | viability, T/C (compound 3.16 µM) 84.3% and 82.3% and 64.7% | viability, T/C (compound 10 µM) 53.4% and 67.6% and 39.1%

CCCS(=O)(=O)Nc1ccc(F)c(C(=O)c2c[nH]c3ncc(-c4ccc(Cl)cc4)cc23)c1F + Cc1cnc(CNC(=O)c2c(=O)c3ccc(N4CCCN(C)CC4)nc3n3c2sc2ccccc23)cn1
active: viability, T/C [35] 12.2% | viability, T/C [36] 2.83% | viability, T/C [37] 0.09% | viability, T/C [38] 0.13% | viability, T/C [39] 0.17% | viability, T/C [40] 0.16% | viability, T/C [41] 0.17% | viability, T/C [42] 0.17%
44.8 nM: IC50 [1]
< 31.6 nM: IC50 [2] | IC50 [3] | IC50 [4] | IC50 [5] | IC50 [6]
inactive: viability, T/C [7] 57.4% | viability, T/C [8] 33.9% | viability, T/C [9] 34.4% | viability, T/C [10] 28.3% | viability, T/C [11] 30.9% | viability, T/C [12] 11.8% | viability, T/C [13] 20.7% | viability, T/C [14] 21.9% | viability, T/C [15] 15.6% | viability, T/C [16] 14.8% | viability, T/C [17] 12.5% | viability, T/C [18] 10.2% | viability, T/C [19] 19.2% | viability, T/C [20] 20% | viability, T/C [21] 17.1% | viability, T/C [22] 16.7% | viability, T/C [23] 15.7% | viability, T/C [24] 10.7% | viability, T/C [25] 16.7% | viability, T/C [26] 19.7% | viability, T/C [27] 18.6% | viability, T/C [28] 14.5% | viability, T/C [29] 14.5% | viability, T/C [30] 6.86% | viability, T/C [31] 18% | viability, T/C [32] 17.4% | viability, T/C [33] 15.1% | viability, T/C [34] 12.9%

CC1COCCN1c1cc(-c2ccnn2C)c2ccnc(-c3ccn[nH]3)c2n1 (stereo not drawn) + Cc1[nH]c2ccc(F)cc2c1-c1nc2c3cccnc3c3ncccc3c2[nH]1
inactive: viability, T/C [7] 72.5% | viability, T/C [8] 12.9% | viability, T/C [13] 46.3% | viability, T/C [14] 19.1% | viability, T/C [19] 48.6% | viability, T/C [20] 19.7% | viability, T/C [25] 38.1% | viability, T/C [26] 19.6% | viability, T/C [31] 35.8% | viability, T/C [37] 28.2%
< 31.6 nM: IC50 [2] | IC50 [3] | IC50 [4] | IC50 [5] | IC50 [6]
48.7 nM: IC50 [1]
active: viability, T/C [9] 9.49% | viability, T/C [10] 4.92% | viability, T/C [11] 6.02% | viability, T/C [12] 4.47% | viability, T/C [15] 8.08% | viability, T/C [16] 6.91% | viability, T/C [17] 5.94% | viability, T/C [18] 4.22% | viability, T/C [21] 9.27% | viability, T/C [22] 7.38% | viability, T/C [23] 5.29% | viability, T/C [24] 4.46% | viability, T/C [27] 7.66% | viability, T/C [28] 6.25% | viability, T/C [29] 5.62% | viability, T/C [30] 4.21% | viability, T/C [32] 8.61% | viability, T/C [33] 5.3% | viability, T/C [34] 3.85% | viability, T/C [35] 3.53% | viability, T/C [36] 3.13% | viability, T/C [38] 4.74% | viability, T/C [39] 3.18% | viability, T/C [40] 3.81% | viability, T/C [41] 2.63% | viability, T/C [42] 2.34%
